The results in this text go back to patent US20230265151A1, “GIP/GLP1 CO-AGONIST COMPOUNDS” (priority 2020, published 2023).

Structures are written as SMILES. pKi: −log10 of the molar value. Where two headings read alike, the source gives them in different places.

One assay has as its target T1, hGIPR (Homo sapiens, UniProt P48546).
T1 construct: expressed in transfected cells
T1 sequence (P48546 22-466): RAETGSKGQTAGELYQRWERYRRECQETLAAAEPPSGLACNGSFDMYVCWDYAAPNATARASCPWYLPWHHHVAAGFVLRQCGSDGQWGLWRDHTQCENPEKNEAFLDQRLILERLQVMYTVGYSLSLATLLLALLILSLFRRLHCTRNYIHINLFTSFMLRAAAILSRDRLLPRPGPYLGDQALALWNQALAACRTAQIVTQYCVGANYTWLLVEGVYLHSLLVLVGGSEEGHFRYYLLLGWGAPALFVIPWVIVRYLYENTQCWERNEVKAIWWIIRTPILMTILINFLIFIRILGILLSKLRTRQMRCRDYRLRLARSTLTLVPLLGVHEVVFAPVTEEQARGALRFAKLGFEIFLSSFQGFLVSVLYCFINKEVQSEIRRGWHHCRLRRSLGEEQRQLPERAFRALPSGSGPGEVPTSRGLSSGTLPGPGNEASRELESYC
Kind of assay: Functional cAMP formation (HTRF) in HEK-293 clonal cells expressing hGIPR, 0.1% bovine casein, without or with 1.0% human serum albumin. Type of assay: cell-based. To be noted: for EC50: cAMP, 0.1% bovine casein (no human serum albumin), geometric mean; for Emax: percent of maximal response to GIP(1-42)NH2. The essentials: (§1)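 Cells were stimulated with peptide for 30 min at 37° C, then lysed in buffer carrying cAMP-d2 and anti-cAMP Eu3+-cryptate for a competitive HTRF read after at least 60 min at room temperature. The 665/620 nm ratio was converted to nM cAMP against a standard curve.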

The target in a further assay is hGLP-1R (Homo sapiens, UniProt P43220). Kind of assay: Functional cAMP formation (HTRF) in HEK-293 clonal cells expressing hGLP-1R, 0.1% bovine casein, without or with 1.0% human serum albumin. In kind it is cell-based. The arrangement: expressed in transfected cells. The settings on record: for Emax: percent of maximal response to GLP-1(7-36)NH2. The essentials: as §1

For another assay, the target named is T2, hGCGR (Homo sapiens, UniProt P47871).
T2 construct: expressed in transfected cells
Description: Functional cAMP formation (HTRF) in HEK-293 clonal cells expressing hGCGR, 0.1% bovine casein, without or with 1.0% human serum albumin. The settings on record: 37° C. Type of assay: cell-based. In outline: as §1

The target of assay [1] is T3, human GLP-1 receptor (hGLP-1R) (Homo sapiens, UniProt P43220).
T3 construct: expressed in transfected cells; crude membranes
Description: [125I]-GLP-1 binding, SPA with membranes of HEK293 cells expressing hGLP-1R. To be noted: for Ki: human GLP-1R, geometric mean (SEM, n), read-out: Binding Affinity Ki, nM (SEM, n) hGLP-1R.

Assay [2] has as its target T4, human GIP receptor (hGIPR) (Homo sapiens, UniProt P48546).
T4 construct: expressed in transfected cells; crude membranes
T4 sequence (P48546 22-466): T1 sequence (P48546 22-466)
Kind of assay: [125I]-GIP binding, SPA with membranes of CHO cells expressing hGIPR. The settings on record: for Ki: human GIPR, geometric mean (SEM, n), read-out: Binding Affinity Ki, nM (SEM, n) hGIPR.

The mark [3] stands for this setting: 37° C., read-out: hGIPR EC50, nM (SEM, n).
The mark [4] stands for this setting: HEK293, cAMP, 37° C., 0.1% bovine casein and 1.0% human serum albumin, read-out: hGLP-1R Emax, % ± SEM.
Setting [5] is: HEK293, cAMP, 37° C., 0.1% bovine casein, arithmetic mean, read-out: hGLP-1R Emax, % ± SEM.
Setting [6] is: cAMP, 37° C., 0.1% bovine casein (no human serum albumin), geometric mean, read-out: hGLP-1R EC50, nM (SEM, n).
Where [7] appears, read: cAMP, 0.1% bovine casein (no human serum albumin), geometric mean, read-out: hGCGR EC50, nM (SEM, n).
Where [8] appears, read: cAMP, 0.1% bovine casein and 1.0% human serum albumin, geometric mean (SEM, n), read-out: hGCGR EC50, nM (SEM, n).

T2 sequence (P47871 26-477): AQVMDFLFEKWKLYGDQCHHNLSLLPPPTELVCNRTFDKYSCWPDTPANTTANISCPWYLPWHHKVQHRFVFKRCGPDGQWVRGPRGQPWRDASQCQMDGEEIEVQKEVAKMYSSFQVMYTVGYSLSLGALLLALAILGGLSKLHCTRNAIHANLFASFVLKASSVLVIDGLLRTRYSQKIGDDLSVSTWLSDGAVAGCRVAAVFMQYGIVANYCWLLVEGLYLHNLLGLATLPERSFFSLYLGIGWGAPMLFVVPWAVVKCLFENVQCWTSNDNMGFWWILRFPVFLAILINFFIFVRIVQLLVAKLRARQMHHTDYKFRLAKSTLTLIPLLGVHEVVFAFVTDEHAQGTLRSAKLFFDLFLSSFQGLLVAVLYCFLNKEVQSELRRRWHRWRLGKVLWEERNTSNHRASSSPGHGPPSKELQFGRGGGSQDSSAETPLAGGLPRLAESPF
T3 sequence (P43220 24-463): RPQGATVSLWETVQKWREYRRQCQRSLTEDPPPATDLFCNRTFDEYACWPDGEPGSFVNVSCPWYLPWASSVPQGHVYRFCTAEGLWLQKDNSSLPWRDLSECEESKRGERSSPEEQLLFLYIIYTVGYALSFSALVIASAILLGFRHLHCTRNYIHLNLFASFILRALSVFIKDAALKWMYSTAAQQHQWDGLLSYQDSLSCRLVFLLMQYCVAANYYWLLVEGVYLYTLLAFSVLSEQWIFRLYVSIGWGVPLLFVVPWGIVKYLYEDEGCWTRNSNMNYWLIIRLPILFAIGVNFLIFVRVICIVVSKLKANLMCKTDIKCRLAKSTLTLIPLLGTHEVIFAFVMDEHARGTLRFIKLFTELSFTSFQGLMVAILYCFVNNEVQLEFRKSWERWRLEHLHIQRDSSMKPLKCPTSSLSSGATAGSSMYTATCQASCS
Sequence of hGLP-1R (P43220 24-463): as above

As for `CC[C@H](C)[C@H](NC(=O)[C@H](CC(C)C)NC(=O)[C@](C)(Cc1ccc(O)cc1)NC(=O)[C@H](CCCCNC(=O)CC[C@H](NC(=O)COCCOCCNC(=O)COCCOCCNC(=O)CC[C@H](NC(=O)CCCCCCCCCCCCC(=O)O)C(=O)O)C(=O)O)NC(=O)[C@@H](NC(=O)[C@H](Cc1ccccc1)NC(=O)[C@H](CCCN)NC(=O)C(C)(C)NC(=O)[C@H](CCC(N)=O)NC(=O)[C@H](C)NC(=O)[C@H](CCC(N)=O)NC(=O)[C@H](CCCN)NC(=O)[C@H](CC(=O)O)NC(=O)[C@H](CC(C)C)NC(=O)[C@](C)(CC(C)C)NC(=O)[C@@H](NC(=O)C(C)(C)NC(=O)[C@H](Cc1ccncc1)NC(=O)[C@H](CC(=O)O)NC(=O)[C@H](CO)NC(=O)[C@@H](NC(=O)[C@](C)(Cc1ccccc1F)NC(=O)[C@@H](NC(=O)CNC(=O)[C@H](CCC(=O)O)NC(=O)C(C)(C)NC(=O)[C@@H](N)Cc1ccc(O)cc1)[C@@H](C)O)[C@@H](C)O)[C@@H](C)CC)[C@@H](C)CC)C(=O)N[C@@H](CCCCNC(=O)CC[C@H](NC(=O)COCCOCCNC(=O)COCCOCCNC(=O)CC[C@H](NC(=O)CCCCCCCCCCCCC(=O)O)C(=O)O)C(=O)O)C(=O)NCC(=O)NCC(=O)N1CCC[C@H]1C(=O)N[C@@H](CO)C(=O)N[C@@H](CO)C(=O)NCC(=O)N[C@@H](C)C(=O)N1CCC[C@H]1C(=O)N1CCC[C@H]1C(=O)N1CCC[C@H]1C(=O)N[C@@H](CO)C(N)=O` [Example 482], the EC50 is 0.0158 nM on hGIPR (setting [3]), 0.169 nM on hGLP-1R (setting [6]), greater than 9950 nM at hGCGR (setting [7]) and greater than 9950 nM at hGCGR (setting [8]). The Emax stood at 110% on hGLP-1R (setting [4]) and 118% at hGLP-1R (setting [5]). Also, the Ki is 0.254 nM in assay [1] and 0.0277 nM in assay [2].

Consider `CC[C@H](C)[C@H](NC(=O)[C@H](CC(C)C)NC(=O)[C@](C)(Cc1ccc(O)cc1)NC(=O)[C@H](CCCCNC(=O)COCCOCCNC(=O)COCCOCCNC(=O)CC[C@H](NC(=O)CCCCCCCCCCCCC(=O)O)C(=O)O)NC(=O)[C@@H](NC(=O)[C@H](Cc1ccccc1)NC(=O)[C@H](CCCN)NC(=O)C(C)(C)NC(=O)[C@H](CCC(N)=O)NC(=O)[C@H](C)NC(=O)[C@H](CCC(N)=O)NC(=O)[C@H](CCCN)NC(=O)[C@H](CC(=O)O)NC(=O)[C@H](CC(C)C)NC(=O)[C@](C)(CC(C)C)NC(=O)[C@@H](NC(=O)C(C)(C)NC(=O)[C@H](Cc1ccncc1)NC(=O)[C@H](CC(=O)O)NC(=O)[C@H](CO)NC(=O)[C@@H](NC(=O)[C@](C)(Cc1ccccc1F)NC(=O)[C@@H](NC(=O)CNC(=O)[C@H](CCC(=O)O)NC(=O)C(C)(C)NC(=O)[C@@H](N)Cc1ccc(O)cc1)[C@@H](C)O)[C@@H](C)O)[C@@H](C)CC)[C@@H](C)CC)C(=O)N[C@@H](CCCCNC(=O)COCCOCCNC(=O)COCCOCCNC(=O)CC[C@H](NC(=O)CCCCCCCCCCCCC(=O)O)C(=O)O)C(=O)NCC(=O)NCC(=O)N1CCC[C@H]1C(=O)N[C@@H](CO)C(=O)N[C@@H](CO)C(=O)NCC(=O)N[C@@H](C)C(=O)N1CCC[C@H]1C(=O)N1CCC[C@H]1C(=O)N1CCC[C@H]1C(=O)N[C@@H](CO)C(N)=O` [Example 391], for which the Emax was determined as 88.3% at hGIPR (HEK293, cAMP, 37° C., 0.1% bovine casein and 1.0% human serum albumin, read-out: hGIPR Emax, % ± SEM); 105% at hGLP-1R (setting [4]); 109% at hGLP-1R (setting [5]). Moreover, the EC50 was 0.0101 nM on hGIPR (setting [3]), 0.167 nM at hGLP-1R (setting [6]), greater than 9950 nM at hGCGR (setting [7]) and greater than 9950 nM on hGCGR (setting [8]). Also, the Ki came to 0.346 nM in assay [1] and 0.0279 nM in assay [2].

For the molecule `CC[C@H](C)[C@H](NC(=O)[C@H](CC(C)C)NC(=O)[C@](C)(Cc1ccc(O)cc1)NC(=O)[C@H](CCCCNC(=O)COCCOCCNC(=O)CCCCCNC(=O)CC[C@H](NC(=O)CCCCCCCCCOc1ccc(C(=O)O)cc1)C(=O)O)NC(=O)[C@@H](NC(=O)[C@H](Cc1ccccc1)NC(=O)[C@H](CCCN)NC(=O)C(C)(C)NC(=O)[C@H](CCC(N)=O)NC(=O)[C@H](C)NC(=O)[C@H](CCC(N)=O)NC(=O)[C@H](CCCN)NC(=O)[C@H](CC(=O)O)NC(=O)[C@H](CC(C)C)NC(=O)[C@](C)(CC(C)C)NC(=O)[C@@H](NC(=O)C(C)(C)NC(=O)[C@H](Cc1ccncc1)NC(=O)[C@H](CC(=O)O)NC(=O)[C@H](CO)NC(=O)[C@@H](NC(=O)[C@](C)(Cc1ccccc1F)NC(=O)[C@@H](NC(=O)CNC(=O)[C@H](CCC(=O)O)NC(=O)C(C)(C)NC(=O)[C@@H](N)Cc1ccc(O)cc1)[C@@H](C)O)[C@@H](C)O)[C@@H](C)CC)[C@@H](C)CC)C(=O)N[C@@H](CCCCNC(=O)COCCOCCNC(=O)CCCCCNC(=O)CC[C@H](NC(=O)CCCCCCCCCOc1ccc(C(=O)O)cc1)C(=O)O)C(=O)NCC(=O)NCC(=O)N1CCC[C@H]1C(=O)N[C@@H](CO)C(=O)N[C@@H](CO)C(=O)NCC(=O)N[C@@H](C)C(=O)N1CCC[C@H]1C(=O)N1CCC[C@H]1C(=O)N1CCC[C@H]1C(=O)N[C@@H](CO)C(N)=O` [Example 453], the Emax at hGIPR (HEK293, read-out: hGIPR Emax, % ± SEM, cAMP, 37° C., 0.1% bovine casein and 1.0% human serum albumin) came to 92%; on hGLP-1R (HEK293, read-out: hGLP-1R Emax, % ± SEM, cAMP, 37° C., 0.1% bovine casein, arithmetic mean), 116%. Further, the EC50 on hGIPR (hGIPR EC50, nM (SEM, n), 37° C.) is 0.0139 nM; at hGLP-1R (hGLP-1R EC50, nM (SEM, n), cAMP, 37° C., 0.1% bovine casein (no human serum albumin), geometric mean), 0.2 nM; at hGLP-1R (hGLP-1R EC50, nM (SEM, n), cAMP, 37° C., 0.1% bovine casein and 1.0% human serum albumin, geometric mean (SEM, n)) it was 5.47 nM; at hGCGR (hGCGR EC50, nM (SEM, n), cAMP, 0.1% bovine casein (no human serum albumin), geometric mean), greater than 9950 nM; on hGCGR (hGCGR EC50, nM (SEM, n), cAMP, 0.1% bovine casein and 1.0% human serum albumin, geometric mean (SEM, n)), greater than 9950 nM. In addition, the pKi in assay [1] was 9.91; in assay [2], 10.89.

As to `CCCCCCCCCCCC(=O)N[C@@H](CCC(=O)NCCOCCOCC(=O)NCCOCCOCC(=O)NCCCC[C@H](NC(=O)[C@H](CCCN)NC(=O)[C@H](CC(=O)O)NC(=O)[C@H](CC(C)C)NC(=O)[C@](C)(CC(C)C)NC(=O)[C@@H](NC(=O)C(C)(C)NC(=O)[C@H](CCCCNC(=O)COCCOCCNC(=O)COCCOCCNC(=O)CC[C@H](NC(=O)CCCCCCCCCCC)C(=O)O)NC(=O)[C@H](CC(=O)O)NC(=O)[C@H](CO)NC(=O)[C@@H](NC(=O)[C@](C)(Cc1ccccc1F)NC(=O)[C@@H](NC(=O)CNC(=O)[C@H](CCC(=O)O)NC(=O)C(C)(C)NC(=O)[C@@H](N)Cc1ccc(O)cc1)[C@@H](C)O)[C@@H](C)O)[C@@H](C)CC)C(=O)N[C@@H](C)C(=O)N[C@@H](CCC(N)=O)C(=O)NC(C)(C)C(=O)N[C@@H](CCC(=O)O)C(=O)N[C@@H](Cc1ccccc1)C(=O)N[C@H](C(=O)N[C@H](CCC(=O)O)C(=O)N[C@@](C)(Cc1ccc(O)cc1)C(=O)N[C@@H](CC(C)C)C(=O)N[C@H](C(=O)N[C@@H](CCC(=O)O)C(=O)NCC(=O)NCC(=O)N1CCC[C@H]1C(=O)N[C@@H](CO)C(=O)N[C@@H](CO)C(=O)NCC(=O)N[C@@H](C)C(=O)N1CCC[C@H]1C(=O)N1CCC[C@H]1C(=O)N1CCC[C@H]1C(=O)N[C@@H](CO)C(N)=O)[C@@H](C)CC)[C@@H](C)CC)C(=O)O` [Example 292], the Emax on hGIPR (HEK293, 0.1% bovine casein and 1.0% human serum albumin, 37° C., read-out: hGIPR Emax, % ± SEM) stood at 88.4%. Further, the EC50 is 0.0062 nM at hGIPR (setting [3]); 4.35 nM on hGLP-1R (0.1% bovine casein and 1.0% human serum albumin, 37° C., geometric mean, read-out: hGLP-1R EC50, nM (SEM, n)); 0.0758 nM on hGLP-1R (setting [6]); greater than 9950 nM on hGCGR (0.1% bovine casein and 1.0% human serum albumin, geometric mean, read-out: hGCGR EC50, nM (SEM, n)); greater than 9950 nM at hGCGR (setting [7]). In addition, the Ki in assay [1] was 0.289 nM; in assay [2] it was 0.0161 nM.
